Patent US20220401414A1, “TREATMENT AND PREVENTION OF A NEURODEGENERATIVE DISORDER” (Inflazome Limited, priority 2019, published 2022)

Key:
IL-1β = assay: Study H: IL-1β ELISA in plasma of PFF-Synuclein mice; type: in vivo, C57BL6 mice; details: 0.3 mg/ml drinking water, 12 months after PFF-Synuclein injections
Description: (§1) To determine the oral efficacy of the compound of formula (I) in a chronic progressive model of Parkinson's disease (PD), the preformed fibrils (PFF) mouse model, using a prophylactic and therapeutic dosing schedule.
8-week-old C57BL6 male mice (obtained from ARC, Perth, Australia) were housed under a 12-h light cycle in a SPF climate-controlled facility with food and water provided ad libitum for two weeks prior to study initiation. The compound of formula (I) (or water alone for control animals) was administrated to mice in drinking water at 0.3 mg/ml. Animals were separated into the groups described in Table 9, with ten animals initiated in each cohort. […]
Recombinant human a-synuclein was obtained from rPeptide Inc., and in vitro fibril generation was performed with a final concentration of 2 mg/ml in phosphate-buffered saline (PBS) by incubation at 37° C. with agitation in an orbital mixer (400 rpm) for 7 days with daily cycles of sonication used to break down fibrillar aggregates as outlined in previously published reports (see Luk et al., Science, 2012, vol. 338(6109), pp. 949-53; and Zhang et al., Methods Mol. Biol., 2019, vol. 1948, pp. 45-57, which are incorporated in their entirety herein by reference). The generation of fibrillar α-synuclein species was confirmed by transmission electron microscopy and Thioflavin T fluorescence prior to use. […]

[1] = system: PFF-Synuclein model of Parkinson's disease; assay: Study H: LC-MS/MS quantification of striatal dopamine and metabolites in the PFF-Synuclein mouse model; type: in vivo, C57BL6 mice; details: ipsilateral striatum, 12 months
Description: as §1
8-week-old C57BL6 male mice (obtained from ARC, Perth, Australia) were housed under a 12-h light cycle in a SPF climate-controlled facility with food and water provided ad libitum for two weeks prior to study initiation. The compound of formula (I) (or water alone for control animals) was administrated to mice in drinking water at 0.3 mg/ml. Animals were separated into the groups described in Table 9, with ten animals initiated in each cohort. For prophylactic dosing, treatment commenced one day prior to PFF-Synuclein injection. For therapeutic dosing, treatment commenced 4 months after disease induction with PFF-Synuclein.
Recombinant human a-synuclein was obtained from rPeptide Inc., and in vitro fibril generation was performed with a final concentration of 2 mg/ml in phosphate-buffered saline (PBS) by incubation at 37° C. with agitation in an orbital mixer (400 rpm) for 7 days with daily cycles of sonication used to break down fibrillar aggregates as outlined in previously published reports (see Luk et al., Science, 2012, vol. 338(6109), pp. 949-53; and Zhang et al., Methods Mol. Biol., 2019, vol. 1948, pp. 45-57, which are incorporated in their entirety herein by reference). The generation of fibrillar α-synuclein species was confirmed by transmission electron microscopy and Thioflavin T fluorescence prior to use.
. The lesion was performed using a 5 μl Hamilton syringe to deliver either vehicle or human PFF-Synuclein (8 μg) at the following coordinates relative to bregma: AP: +0.5 mm; ML: −2.0 mm; DV: −3.0 mm into the right dorsal striatum according to the stereotaxic atlas (“The mouse brain in stereotaxic coordinates” by Paxinos and Franklin, 1997). After drilling a 1 mm burr-hole in the skull, a 2 μl volume of solution was infused at the target site at the rate of 0.2 μl per minute. The needle was held in place for at least 5 minutes after injection to minimize retrograde flow along the needle tract. […]
At 12 months mice were sacrificed and striatal tissue was micro-dissected, weighed and snap-frozen at −80° C. […] Striatal dopamine (DA) and its metabolites (DOPAC and HVA) were quantified in their stable derivative form in the presence of internal standard 3,4-dihydroxybenzylamine (DHBA) using highly sensitive liquid chromatography-tandem mass spectrometry (LC-MS/MS) as described previously (Park et al., Biol. Pharm. Bull., 2013, vol. 36(2), pp. 252-8). […] For quantitation, one transition per analyte was monitored and two transitions per analyte were monitored for qualitative purposes.

[2] = prophylactic and therapeutic treated mice

For `CC(C)n1ccc(S(=O)(=O)NC(=O)Nc2c3c(cc4c2CCC4)CCC3)n1` [compound of formula (I)], the “circulating IL-1β in plasma compared with the PFF-Synuclein group” value (IL-1β; prophylactic treatment) was “significant decrease in circulating IL-1β”, the “circulating IL-1β in plasma compared with the PFF-Synuclein group” value (IL-1β; therapeutic treatment) was “significant decrease in circulating IL-1β” and the “striatal DOPAC compared to the untreated PFF mice” value [1, 2] was “significantly higher”. For the same compound, the “striatal HVA compared to the untreated PFF mice” value [1, 2] was “significantly higher”, the “striatal dopamine concentrations compared with untreated PFF-syn mice” value ([1]; prophylactic, P<0.02) was “significantly higher striatal dopamine concentrations” and the “striatal dopamine concentrations compared with untreated PFF-syn mice” value ([1]; therapeutic, P<0.05) was “significantly higher striatal dopamine concentrations”.
